Where “and” joins values, the source holds several entries; their conditions need not be identical. Equal values may be shown once. Where a name gives a salt, the structure may show the parent alone. One block for each molecule: values may come before it.
What was measured:
[1] = Red blood cell binding (RBC to plasma ratio), mouse whole blood; type: in vitro ADME; conditions: 30 minutes at 37° C., nominal 500 ng/ml
Experimental: (§1) Compounds, including one positive control, are assessed for red blood cell (RBC) uptake, using a modified procedure based on the protocol reported in Sun, J. X. S., et al. High-performance liquid chromatographic analysis, plasma protein binding and red blood cell partitioning of phenprobamate. Biopharmaceutics and Drug Disposition, 8 (1987) 341-351.
(§2) Briefly, RBC uptake is evaluated by comparison of the levels in spiked plasma (n=3) and plasma isolated from spiked whole blood (n=3). Compounds are incubated with human and mouse whole blood, respectively, for 30 minutes at 37° C. using a nominal concentration of 500 ng/ml. Following centrifugation, the plasma is removed and submitted for analysis. Each compound is also spiked into blank plasma at a nominal concentration of 500 ng/ml, and submitted for analysis. Levels in the two plasma samples (Cp′ and Cp in the equation below) and the blood hematocrit are used to determine the red blood cell to plasma ratio (Crbc/Cp). [formula] In equation 1, Cp′ is the level of drug in the spiked “blank” plasma, Cp is the level of drug in the plasma of spiked whole blood, and H is the hematocrit. The hematocrit values are determined as 0.4 for human whole blood and 0.41 for mouse whole blood. The samples are analyzed with ESI LC/MS, using positive ion detection with an internal standard.
(§3) The red blood cell to plasma ratio is determined for each compound using equation 1. Tables 6 and 7 summarize the respective mean Crbc/Cp values and standard deviations for mouse and human whole blood, respectively, in descending order based on the red blood cell to plasma ratio, where “*” denotes Positive Control, and “ND” denotes Not Determined. MDL 108552 is included as a positive control for red blood cell uptake.

[2] = Plasma pharmacokinetics in mice after single intravenous cassette doses; conditions: mice; for Mean concentration in plasma: single 18 mg/kg intravenous cassette dose (Cassette #1)
[3] = Red blood cell binding (RBC to plasma ratio), human whole blood; type: in vitro ADME; conditions: 30 minutes at 37° C., nominal 500 ng/ml
Experimental: as §1, §2, §3

cdk4/cyclin D1 = cdk4/cyclin D1 (Homo sapiens, UniProt P11802); assay: Cyclin-dependent kinase assay, cdk4/cyclin D1 (GST-pRb substrate); type: biochemical; conditions: inhibition of cyclin D1/CDK 4 enzyme activity
cdk1/cyclin B = cdk1/cyclin B (Homo sapiens, UniProt P06493); assay: Cyclin-dependent kinase assay, cdk1/cyclin B (Histone H1 substrate)
[4] = 24 h, BLQ = below assay quantification limit (approx. 1 ng/ml)
[5] = Cassette #2, single 18 mg/kg iv cassette dose (3 mg/kg/compound), 24 h
[6] = Cassette #3, single 15 mg/kg iv cassette dose (3 mg/kg/compound), 24 h

Sequence of cdk1/cyclin B (P06493 whole entry): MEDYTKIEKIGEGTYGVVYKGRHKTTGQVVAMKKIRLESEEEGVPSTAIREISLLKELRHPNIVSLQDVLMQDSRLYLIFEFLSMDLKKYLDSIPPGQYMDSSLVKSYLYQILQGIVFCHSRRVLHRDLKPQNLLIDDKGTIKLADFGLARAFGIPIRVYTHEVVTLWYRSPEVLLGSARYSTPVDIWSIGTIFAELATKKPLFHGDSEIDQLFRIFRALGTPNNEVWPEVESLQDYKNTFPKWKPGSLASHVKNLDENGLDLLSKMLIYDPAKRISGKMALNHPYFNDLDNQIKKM
Sequence of cdk1/cyclin B (P14635 whole entry partner): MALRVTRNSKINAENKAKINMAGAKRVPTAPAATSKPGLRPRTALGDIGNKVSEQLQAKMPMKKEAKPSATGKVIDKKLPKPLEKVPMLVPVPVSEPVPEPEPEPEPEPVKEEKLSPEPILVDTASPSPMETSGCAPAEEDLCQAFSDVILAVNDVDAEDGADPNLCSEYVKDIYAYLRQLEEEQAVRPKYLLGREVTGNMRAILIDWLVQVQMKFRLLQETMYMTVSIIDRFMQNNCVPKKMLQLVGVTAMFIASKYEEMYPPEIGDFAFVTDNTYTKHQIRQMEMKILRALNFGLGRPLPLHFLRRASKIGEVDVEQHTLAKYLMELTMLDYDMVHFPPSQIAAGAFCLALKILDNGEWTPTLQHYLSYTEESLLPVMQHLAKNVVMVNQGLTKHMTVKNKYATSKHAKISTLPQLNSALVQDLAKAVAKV
Sequence of cdk4/cyclin D1 (P11802 whole entry): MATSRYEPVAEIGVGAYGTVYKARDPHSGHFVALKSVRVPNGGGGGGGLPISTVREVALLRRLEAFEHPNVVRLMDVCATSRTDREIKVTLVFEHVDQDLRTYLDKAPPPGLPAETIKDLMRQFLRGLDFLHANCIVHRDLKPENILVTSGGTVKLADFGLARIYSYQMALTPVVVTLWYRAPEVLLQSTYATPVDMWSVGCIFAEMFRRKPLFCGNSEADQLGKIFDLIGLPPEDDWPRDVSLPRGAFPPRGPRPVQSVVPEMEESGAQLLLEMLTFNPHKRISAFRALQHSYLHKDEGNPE
Sequence of cdk4/cyclin D1 (P24385 whole entry partner): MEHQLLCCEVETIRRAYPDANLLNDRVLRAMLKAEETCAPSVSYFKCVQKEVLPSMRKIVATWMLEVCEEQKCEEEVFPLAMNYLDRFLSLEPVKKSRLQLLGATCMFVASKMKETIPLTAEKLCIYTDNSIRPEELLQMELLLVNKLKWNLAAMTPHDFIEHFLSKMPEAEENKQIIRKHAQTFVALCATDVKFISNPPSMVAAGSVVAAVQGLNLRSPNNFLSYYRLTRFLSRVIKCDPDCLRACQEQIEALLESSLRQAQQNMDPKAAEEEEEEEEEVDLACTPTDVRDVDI

Structure (SMILES): Cl.Cl.N[C@H]1CC[C@H](Nc2nc(NC3CCN(S(=O)(=O)c4ccc(F)cc4)CC3)c3ncn(C4CCCC4)c3n2)CC1 [Compound 106, trans-N^2-(4-Amino-cyclohexyl)-9-cyclopentyl-N^6-[1-(4-fluoro-benzenesulfonyl)-piperidin-4-yl]-9H-purine-2,6-diamine dihydrochloride]
Mean Red Blood Cell to Plasma Ratio ([1]; hematocrit 0.41): 3.0 | Mean Conc. in plasma ([2]; Cassette #4, single 15 mg/kg iv cassette dose (3 mg/kg/compound), 8 h): BLQ^a | Mean Conc. in plasma ([2]; Cassette #4, single 15 mg/kg iv cassette dose (3 mg/kg/compound), 24 h): BLQ | Mean Red Blood Cell to Plasma Ratio [3]: 3.9

Structure (SMILES): Cl.Cl.N[C@H]1CC[C@H](Nc2nc(NC3CCN(C(=O)Oc4ccccc4)CC3)c3ncn(C4CCCC4)c3n2)CC1 [Compound 85, trans-4-[2-(4-Amino-cyclohexylamino)-9-cyclopentyl-9H-purin-6-ylamino]-piperidine-1-carboxylic acid phenyl ester dihydrochloride]
Mean Red Blood Cell to Plasma Ratio ([1]; hematocrit 0.41): 6.1 | Mean concentration in plasma ([2]; 0.083 h): 843.3 ± 124.5 ng/mL | Mean concentration in plasma ([2]; 0.25 h): 341.6 ± 45.1 ng/mL | Mean concentration in plasma ([2]; 0.5 h): 163.8 ± 15.7 ng/mL | Mean concentration in plasma ([2]; 1 h): 89.0 ± 21.5 ng/mL | Mean concentration in plasma ([2]; 3 h): 14.3 ± 7.1 ng/mL | Mean concentration in plasma ([2]; 6 h): 5.2 ± 1.9 ng/mL | Mean concentration in plasma ([2]; 8 h): 3.2 ng/mL | Mean concentration in plasma [2, 4]: BLQ | Mean Red Blood Cell to Plasma Ratio [3]: 7.1

Structure (SMILES): Cl.Cl.N[C@H]1CC[C@H](Nc2nc(NC3CCN(C(=O)c4cccc(C(F)(F)F)c4F)CC3)c3ncn(C4CCCC4)c3n2)CC1 [Compound 12, trans-1-{4-[2-(4-Amino-cyclohexylamino)-9-cyclopentyl-9H-purin-6-ylamino]-piperidin-1-yl}-1-(2-fluoro-3-trifluoromethyl-phenyl)-methanone dihydrochloride]
Mean Red Blood Cell to Plasma Ratio ([1]; hematocrit 0.41): 1.9 | Mean concentration in plasma [2, 4]: BLQ | Mean Red Blood Cell to Plasma Ratio [3]: 3.6

Structure (SMILES): Cl.Cl.N[C@H]1CC[C@H](Nc2nc(NC3CCN(C(=O)Oc4ccc(Br)cc4)CC3)c3ncn(C4CCCC4)c3n2)CC1 [Compound 81, trans-4-[2-(4-Amino-cyclohexylamino)-9-cyclopentyl-9H-purin-6-ylamino]-piperidine-1-carboxylic acid 4-bromo-phenyl ester dihydrochloride]
Mean Red Blood Cell to Plasma Ratio ([1]; hematocrit 0.41, dihydrochloride): 4.5 and 3.3 | Mean Conc. in plasma [2, 5]: BLQ | Mean Red Blood Cell to Plasma Ratio [3]: 5.3

Structure (SMILES): Cl.Cl.N[C@H]1CC[C@H](Nc2nc(NC3CCN(C(=O)Oc4ccc(Cl)cc4)CC3)c3ncn(C4CCCC4)c3n2)CC1 [Compound 88, trans-4-[2-(4-Amino-cyclohexylamino)-9-cyclopentyl-9H-purin-6-ylamino]-piperidine-1-carboxylic acid 4-chloro-phenyl ester dihydrochloride]
Mean Red Blood Cell to Plasma Ratio ([1]; hematocrit 0.41): 3.5 | Mean Conc. in plasma ([2]; Cassette #3, single 15 mg/kg iv cassette dose (3 mg/kg/compound), 0.083 h): 1483.3 ± 272.5 ng/mL | Mean Conc. in plasma ([2]; Cassette #3, single 15 mg/kg iv cassette dose (3 mg/kg/compound), 0.25 h): 420.9 ± 49.9 ng/mL | Mean Conc. in plasma ([2]; Cassette #3, single 15 mg/kg iv cassette dose (3 mg/kg/compound), 0.5 h): 150.2 ± 5.9 ng/mL | Mean Conc. in plasma ([2]; Cassette #3, single 15 mg/kg iv cassette dose (3 mg/kg/compound), 1 h): 74.6 ± 16.1 ng/mL | Mean Conc. in plasma ([2]; Cassette #3, single 15 mg/kg iv cassette dose (3 mg/kg/compound), 3 h): 24.8 ± 7.4 ng/mL | Mean Conc. in plasma ([2]; Cassette #3, single 15 mg/kg iv cassette dose (3 mg/kg/compound), 6 h): 8.9 ± 1.6 ng/mL | Mean Conc. in plasma ([2]; Cassette #3, single 15 mg/kg iv cassette dose (3 mg/kg/compound), 8 h): 5.4 ± 2.0 ng/mL | Mean Conc. in plasma [2, 6]: BLQ | Mean Red Blood Cell to Plasma Ratio [3]: 2.6

Structure (SMILES): COc1ccc(OC(=O)N2CCC(Nc3nc(N[C@H]4CC[C@H](N)CC4)nc4c3ncn4C3CCCC3)CC2)cc1.Cl.Cl [Compound 84, trans-4-[2-(4-Amino-cyclohexylamino)-9-cyclopentyl-9H-purin-6-ylamino]-piperidine-1-carboxylic acid 4-methoxy-phenyl ester dihydrochloride]
Mean Red Blood Cell to Plasma Ratio ([1]; hematocrit 0.41): 3.5 | Mean Conc. in plasma [2, 5]: BLQ | Mean Red Blood Cell to Plasma Ratio [3]: 2.0

Structure (SMILES): Cl.Cl.N[C@H]1CC[C@H](Nc2nc(NC3CCN(C(=O)Nc4ccc(C(F)(F)F)cc4)CC3)c3ncn(C4CCCC4)c3n2)CC1 [Compound 149, trans-4-[2-(4-Amino-cyclohexylamino)-9-cyclopentyl-9H-purin-6-ylamino]-piperidine-1-carboxylic acid (4-trifluoromethyl-phenyl)-amide dihydrochloride]
Mean Red Blood Cell to Plasma Ratio ([1]; hematocrit 0.41): 3.4 | Mean Conc. in plasma [2, 6]: BLQ | Mean Red Blood Cell to Plasma Ratio [3]: 2.8

Structure (SMILES): Cl.Cl.N#Cc1ccc(S(=O)(=O)N2CCC(Nc3nc(N[C@H]4CC[C@H](N)CC4)nc4c3ncn4C3CCCC3)CC2)cc1 [Compound 109, trans-N^2-(4-Amino-cyclohexyl)-9-cyclopentyl-N^6-[1-(4-cyano-benzenesulfonyl)-piperidin-4-yl]-9H-purine-2,6-diamine dihydrochloride]
Mean Red Blood Cell to Plasma Ratio ([1]; hematocrit 0.41): 2.4 | Mean concentration in plasma [2, 4]: BLQ | Mean Red Blood Cell to Plasma Ratio [3]: 5.0

Structure (SMILES): Cl.Cl.N[C@H]1CC[C@H](Nc2nc(NC3CCN(S(=O)(=O)c4cccc(C(F)(F)F)c4)CC3)c3ncn(C4CCCC4)c3n2)CC1 [Compound 112, trans-N^2-(4-Amino-cyclohexyl)-9-cyclopentyl-N^6-[1-(3-trifluoromethyl-benzenesulfonyl)-piperidin-4-yl]-9H-purine-2,6-diamine dihydrochloride]
Mean Red Blood Cell to Plasma Ratio ([1]; hematocrit 0.41): 2.4 | Mean Conc. in plasma [2, 6]: BLQ | Mean Red Blood Cell to Plasma Ratio [3]: 3.7

Structure (SMILES): COC(=O)c1ccccc1S(=O)(=O)N1CCC(Nc2nc(N[C@H]3CC[C@H](N)CC3)nc3c2ncn3C2CCCC2)CC1.Cl.Cl [Compound 111, trans-2-{4-[2-(4-Amino-cyclohexylamino)-9-cyclopentyl-9H-purin-6-ylamino]-piperidine-1-sulfonyl}-benzoic acid methyl ester dihydrochloride]
Mean Red Blood Cell to Plasma Ratio ([1]; hematocrit 0.41): 2.2 | Mean concentration in plasma [2, 4]: BLQ | Mean Red Blood Cell to Plasma Ratio [3]: 1.2

The remaining lines, values ahead:

IC50 (cdk4/cyclin D1): 167 nM | IC50 (cdk1/cyclin B): 25 nM
Structure (SMILES): N[C@H]1CC[C@H](Nc2nc(NC3CCN(C(=O)/C=C/c4ccccc4)CC3)c3ncn(C4CCCC4)c3n2)CC1 [Compound 62, trans-(E)-1-{4-[2-(4-Amino-cyclohexylamino)-9-cyclopentyl-9H-purin-6-ylamino]-piperidin-1-yl}-3-phenyl-propenone dihydrochloride]

IC50 (cdk4/cyclin D1): > 10000 nM
Structure (SMILES): COc1cc(COC(=O)N2CCC(Nc3nc(N[C@H]4CC[C@H](N)CC4)nc4c3ncn4C3CCCC3)CC2)c([N+](=O)[O-])cc1OC [Compound 101, trans-4-[2-(4-Amino-cyclohexylamino)-9-cyclopentyl-9H-purin-6-ylamino]-piperidine-1-carboxylic acid 4,5-dimethoxy-2-nitro-benzyl ester dihydrochloride]

IC50 (cdk4/cyclin D1): 1490 nM | IC50 (cdk1/cyclin B): 129 nM
Structure (SMILES): N[C@H]1CC[C@H](Nc2nc(NC3CCN(C(=O)/C=C/c4cccc(C(F)(F)F)c4)CC3)c3ncn(C4CCCC4)c3n2)CC1 [Compound 44, trans-(E)-1-{4-[2-(4-Amino-cyclohexylamino)-9-cyclopentyl-9H-purin-6-ylamino]-piperidin-1-yl}-3-(3-trifluoromethyl-phenyl)-propenone dihydrochloride]

IC50 (cdk4/cyclin D1): 5 nM | IC50 (cdk1/cyclin B): 9 nM
Structure (SMILES): N[C@H]1CC[C@H](Nc2nc(NC3CCN(S(=O)(=O)c4cccs4)CC3)c3ncn(C4CCCC4)c3n2)CC1 [Compound 128, trans-N^2&-(4-Amino-cyclohexyl)-9-cyclopentyl-N^6-[1-(thiophene-2-sulfonyl)-piperidin-4-yl]-9H-purine-2,6-diamine dihydrochloride]

IC50 (cdk4/cyclin D1): > 10000 nM
Structure (SMILES): C=CCCOC(=O)N1CCC(Nc2nc(N[C@H]3CC[C@H](N)CC3)nc3c2ncn3C2CCCC2)CC1 [Compound 100, trans-4-[2-(4-Amino-cyclohexylamino)-9-cyclopentyl-9H-purin-6-ylamino]-piperidine-1-carboxylic acid but-3-enyl ester dihydrochloride]
